Results as given in paper PMC8125337 (International Journal of Molecular Sciences, 2021).

Molecular target: T1, TRPV1 (vanilloid receptor)
T1 construct: native receptor in hemocytes
Assay: radioligand saturation binding, rapid filtration
Assay type: cell-based, Mytilus galloprovincialis

Compound `C=C(C)[C@]12C[C@@H](C)[C@@]34O[C@](Cc5ccccc5)(O[C@@H]1[C@@H]3C=C(COC(=O)Cc1ccc(O)c(OC)c1)C[C@]1(O)C(=O)C(C)=C[C@@H]41)O2` [resiniferatoxin] has a Kd of 0.413 ± 0.168 nM.
